Experimental data as given in US11180504B2 (ORCHID PHARMA LTD., priority 2016, dated 2021).
Values after ≈ are worked out from the molar mass of the structure shown. Where two headings read alike, the source gives them in different places.

Key:
[1] = test system: carbapenem sensitive Escherichia coli; assay: MIC by broth micro-dilution (CLSI), carbapenem sensitive E. coli; type: cell-based
[2] = test system: methicillin-sensitive Staphylococcus aureus; assay: MIC by broth micro-dilution (CLSI), methicillin-sensitive S. aureus; type: cell-based; details: MSSA S. aureus ATCC29213
[3] = test system: carbapenem sensitive Pseudomonas aeruginosa; assay: MIC by broth micro-dilution (CLSI), carbapenem sensitive P. aeruginosa; type: cell-based
[4] = test system: carbapenemase producing K. pneumoniae; assay: MIC by broth micro-dilution (CLSI), carbapenemase producing K. pneumoniae; type: cell-based, Klebsiella pneumoniae
[5] = Escherichia coli, ATCC25922, ESBL −ve E. coli ATCC25922, read-out: MIC
[6] = Staphylococcus aureus, ATCC 29213 / MSSA, read-out: MIC
[7] = Pseudomonas aeruginosa, ATCC27853, Meropenem susceptible P. aeruginosa ATCC27853, read-out: MIC
[8] = Klebsiella pneumoniae, ATCCBAA1705, KPC-2 K. pneumoniae ATCC BAA-1705, read-out: MIC
[9] = Meropenem susceptible P. aeruginosa ATCC27853
[10] = KPC-2 K. pneumoniae ATCC BAA-1705

Compound	MIC [1, 5]	MIC [2, 6]	MIC [3, 7]	MIC [4, 8]	MIC ([1]; ESBL −ve E. coli ATCC25922)	MIC [2]	MIC [3, 9]	MIC [4, 10]	MIC ([2]; Staphylococcus aureus, ATCC29213|MSSA, read-out: MIC)
CNCC(=O)N[C@H](C)[C@H]1C(=O)N2C(C(=O)O)=C(S[C@@H]3CN[C@H](C(=O)N4C[C@@H](N)[C@H](O)C4)C3)[C@H](C)[C@H]12 [Example 297]	1 µg/mL (≈ 1.96 µM)	16 µg/mL (≈ 31.3 µM)	4 µg/mL (≈ 7.83 µM)	2 µg/mL (≈ 3.92 µM)					
C[C@@H](NC(=O)Cn1nnnc1C(C)(C)C)[C@H]1C(=O)N2C(C(=O)O)=C(S[C@@H]3CN[C@H](C(=O)N4CC[C@@H](N)C4)C3)[C@H](C)[C@H]12 [Example 355, (4R,5S,6R)-3-((3S,5S)-5-((R)-3-aminopyrrolidine-1-carbonyl)pyrrolidin-3-ylthio)-6-((R)-1-(2-(5-tert-hutyl-1H-tetrazol-1-yl)acetamido)ethyl)-4-methyl-7-oxo-1-azabicyclo[3.2.0]hept-2-ene-2-carboxylic acid]	1 µg/mL (≈ 1.7 µM)	4 µg/mL (≈ 6.78 µM)	128 µg/mL (≈ 217 µM)	16 µg/mL (≈ 27.1 µM)					
C[C@@H](NC(=O)Cn1cnnn1)[C@H]1C(=O)N2C(C(=O)O)=C(S[C@@H]3CN[C@H](C(=O)N4CCC(C(=O)NCC(O)CN)CC4)C3)[C@H](C)[C@H]12 (single isomer, unassigned) [Example 573]					0.125 µg/mL (≈ 0.193 µM)	4 µg/mL (≈ 6.17 µM)	1 µg/mL (≈ 1.54 µM)	2 µg/mL (≈ 3.08 µM)	
C[C@@H](NC(=O)Cn1cnnn1)[C@H]1C(=O)N2C(C(=O)[O-])=C(S[C@@H]3CN[C@H](C(=O)N4CCC5C[N+](C)(C)CCC54)C3)[C@H](C)[C@H]12 (some centres unmarked) [Example 599]					1 µg/mL (≈ 1.66 µM)	4 µg/mL (≈ 6.65 µM)	4 µg/mL (≈ 6.65 µM)	2 µg/mL (≈ 3.32 µM)	
CNCC(=O)N[C@H](C)[C@H]1C(=O)N2C(C(=O)O)=C(S[C@@H]3CN[C@H](C(=O)N4CC5CC4CN5)C3)[C@H](C)[C@H]12 (some centres unmarked) [Example 290]	2 µg/mL (≈ 3.95 µM)	32 µg/mL (≈ 63.2 µM)	8 µg/mL (≈ 15.8 µM)	4 µg/mL (≈ 7.9 µM)					
C[C@@H](NC(=O)c1ccccc1-n1cnnn1)[C@H]1C(=O)N2C(C(=O)O)=C(S[C@@H]3CN[C@H](C(=O)N4CC[C@@H](N)C4)C3)[C@H](C)[C@H]12 [Example 374, (4R,5S,6R)-6-((R)-1-(2-(1H-tetrazol-1-yl)benzamido)ethyl)-3-((3S,5S)-5-((R)-3-aminopyrrolidine-1-carbonyl)pyrrolidin-3-ylthio)-4-methyl-7-oxo-1-azabicyclo[3.2.0]hept-2-ene-2-carboxylic acid]	32 µg/mL (≈ 53.7 µM)	8 µg/mL (≈ 13.4 µM)	> 128 µg/mL	> 128 µg/mL					
C[C@@H](NC(=O)[C@@H](N)Cn1cnnn1)[C@H]1C(=O)N2C(C(=O)O)=C(S[C@@H]3CN[C@H](C(=O)N(C)C)C3)[C@H](C)[C@H]12 [Example 322, (4R,5S,6R)-6-((R) - 1-((S)-2-amino-3-(1H-tetrazol-1-yl)propanamido)ethyl)-3-((3S,5S)-5-(dimethylcarbamoyl)pyrrolidin-3-ylthio)-4-methyl-7-oxo-1-azabicyclo[3.2.0]hept-2-ene-2-carboxylic acid]	2 µg/mL (≈ 3.83 µM)	16 µg/mL (≈ 30.7 µM)	> 128 µg/mL	16 µg/mL (≈ 30.7 µM)					
C[C@@H](NC(=O)C(F)F)[C@H]1C(=O)N2C(C(=O)O)=C(S[C@@H]3CN[C@H](CNS(=O)(=O)N4CC[C@H](N)C4)C3)[C@H](C)[C@H]12 [Example 237]	2 µg/mL (≈ 3.53 µM)	1 µg/mL (≈ 1.76 µM)	128 µg/mL (≈ 226 µM)	4 µg/mL (≈ 7.06 µM)					
C[C@@H](NC(=O)Cn1cnnn1)[C@H]1C(=O)N2C(C(=O)O)=C(S[C@@H]3CN[C@H](C(=O)N4CCC5CNCCC54)C3)C[C@H]12 (stereo partly drawn) [Example 601, (5R,6R)-6-((R)-1-(2-(1H-tetrazol-1-yl)acetamido)ethyl)-3-((3S,5S)-5-(octahydro-1H-pyrrolo[3,2-c]pyridine-1-carbonyl)pyrrolidin-3-ylthio)-7-oxo-1-azabicyclo[3.2.0]hept-2-ene-2-carboxylic acid]	2 µg/mL (≈ 3.57 µM)	2 µg/mL (≈ 3.57 µM)	128 µg/mL (≈ 229 µM)	64 µg/mL (≈ 114 µM)					

More lines, in order of falling MIC [1, 5], values ahead:

MIC [1, 5]	MIC [2, 6]	MIC [3, 7]	MIC [4, 8]	MIC ([1]; ESBL −ve E. coli ATCC25922)	MIC [2]	MIC [3, 9]	MIC [4, 10]	MIC ([2]; Staphylococcus aureus, ATCC29213|MSSA, read-out: MIC)	Compound
1 µg/mL (≈ 2.22 µM)	2 µg/mL (≈ 4.44 µM)	64 µg/mL (≈ 142 µM)	16 µg/mL (≈ 35.5 µM)						C[C@H]([C@H]1C(=O)N2C(C(=O)O)=C(S[C@@H]3CN[C@H](C(=O)N(C)C)C3)[C@H](C)[C@H]12)n1nnc(N)n1 [Example 326, (4R,5S,6S)-6-((R) - 1-(5-amino-2H-tetrazol-2-yl)ethyl)-3-((3S,5S)-5-(dimethylcarbamoyl)pyrrolidin-3-ylthio)-4-methyl-7-oxo-1-azabicyclo[3.2.0]hept-2-ene-2-carboxylic acid]
0.5 µg/mL (≈ 0.889 µM)	8 µg/mL (≈ 14.2 µM)	4 µg/mL (≈ 7.11 µM)	4 µg/mL (≈ 7.11 µM)						C[C@@H](NC(=O)Cn1cnnn1)[C@H]1C(=O)N2C(C(=O)O)=C(S[C@@H]3CN[C@H](C(=O)N4CCN[C@@H](CN)C4)C3)[C@H](C)[C@H]12 [Example 485, (4R,5S,6R)-6-((R)-1-(2-(1H-tetrazol-1-yl)acetamido)ethyl)-3-((3S,5S)-5-((S)-3-(aminomethyl)piperazine-1-carbonyl)pyrrolidin-3-ylthio)-4-methyl-7-oxo-1-azabicyclo[3.2.0]hept-2-ene-2-carboxylic acid]
0.5 µg/mL (≈ 0.775 µM)	4 µg/mL (≈ 6.2 µM)	4 µg/mL (≈ 6.2 µM)	2 µg/mL (≈ 3.1 µM)						C[C@@H](NC(=O)Cn1cnnn1)[C@H]1C(=O)N2C(C(=O)O)=C(S[C@@H]3CN[C@H](C(=O)N4CCC(C(=O)N5CCNCC5)CC4)C3)[C@H](C)[C@H]12 [Example 430, (4R,5S,6R)-6-((R)-1-(2-(1H-tetrazol-1-yl)acetamido)ethyl)-4-methyl-7-oxo-3-((3S,5S)-5-(4-(piperazine-1-carbonyl)piperidine-1-carbonyl)pyrrolidin-3-ylthio)-1-azabicyclo[3.2.0]hept-2-ene-2-carboxylic acid]
0.5 µg/mL (≈ 0.872 µM)	4 µg/mL (≈ 6.97 µM)	64 µg/mL (≈ 112 µM)	8 µg/mL (≈ 13.9 µM)						C[C@@H](NC(=O)Cn1nnnc1C1CC1)[C@H]1C(=O)N2C(C(=O)O)=C(S[C@@H]3CN[C@H](C(=O)N4CC[C@@H](N)C4)C3)[C@H](C)[C@H]12 [Example 372, (4R,5S,6R)-3-((3S,5S)-5-((R)-3-aminopyrrolidine-1-carbonyl)pyrrolidin-3-ylthio)-6-((R)-1-(2-(5-cyclopropyl-1H-tetrazol-1-yl)acetamido)ethyl)-4-methyl-7-oxo-1-azabicyclo[3.2.0]hept-2-ene-2-carboxylic acid]
0.5 µg/mL (≈ 0.773 µM)	2 µg/mL (≈ 3.09 µM)	2 µg/mL (≈ 3.09 µM)					0.5 µg/mL (≈ 0.773 µM)		C[C@@H](NC(=O)Cn1cnnn1)[C@H]1C(=O)N2C(C(=O)O)=C(S[C@@H]3CN[C@H](C(=O)N4CCC5CN(C[C@@H](O)CN)CCC54)C3)[C@H](C)[C@H]12 (single isomer, unassigned) [Example 521]
0.25 µg/mL (≈ 0.413 µM)	2 µg/mL (≈ 3.3 µM)	1 µg/mL (≈ 1.65 µM)	1 µg/mL (≈ 1.65 µM)						C[C@@H](NC(=O)Cn1cnnn1)[C@H]1C(=O)N2C(C(=O)O)=C(S[C@@H]3CN[C@H](C(=O)N4CCN(C[C@H](N)CN)CC4)C3)[C@H](C)[C@H]12 [Example 457, (4R,5S,6R)-6-((R)-1-(2-(1H-tetrazol-1-yl)acetamido)ethyl)-3-((3S,5S)-5-(4-((R)-2,3-diaminopropyl)piperazine-1-carbonyl)pyrrolidin-3-ylthio)-4-methyl-7-oxo-1-azabicyclo[3.2.0]hept-2-ene-2-carboxylic acid]
0.25 µg/mL (≈ 0.436 µM)	2 µg/mL (≈ 3.49 µM)	2 µg/mL (≈ 3.49 µM)	1 µg/mL (≈ 1.74 µM)						C[C@@H](NC(=O)Cn1cnnn1)[C@H]1C(=O)N2C(C(=O)O)=C(S[C@@H]3CN[C@H](C(=O)N4CCC5CNCCC54)C3)[C@H](C)[C@H]12 (single isomer, unassigned) [Example 438]
0.25 µg/mL (≈ 0.436 µM)		2 µg/mL (≈ 3.49 µM)	2 µg/mL (≈ 3.49 µM)					4 µg/mL (≈ 6.97 µM)	C[C@@H](NC(=O)Cn1cnnn1)[C@H]1C(=O)N2C(C(=O)O)=C(S[C@@H]3CN[C@H](C(=O)N4CCC5CNCC5C4)C3)[C@H](C)[C@H]12 (single isomer, unassigned) [Example 533]
0.125 µg/mL (≈ 0.213 µM)	2 µg/mL (≈ 3.41 µM)	1 µg/mL (≈ 1.71 µM)	1 µg/mL (≈ 1.71 µM)						C[C@@H](NC(=O)Cn1cnnn1)[C@H]1C(=O)N2C(C(=O)O)=C(S[C@@H]3CN[C@H](C(=O)N4CC5C[C@@H]6C[C@]5(CN6)C4)C3)[C@H](C)[C@H]12 (stereo partly drawn) [Example 564, (4R,5S,6R)-6-((R)-1-(2-(1H-tetrazol-1-yl)acetamido)ethyl)-3-((3S,5S)-5-((1S,7R)-3,8-Diaza-tricyclo[5.2.1.01,5]decane-3-carbonyl)-pyrrolidin-3-ylthio)-4-methyl-7-oxo-1-azabicyclo[3.2.0]hept-2-ene-2-carbnxylic acid]
0.125 µg/mL (≈ 0.227 µM)	4 µg/mL (≈ 7.26 µM)	4 µg/mL (≈ 7.26 µM)	1 µg/mL (≈ 1.82 µM)						C[C@@H](NC(=O)Cn1cnnn1)[C@H]1C(=O)N2C(C(=O)O)=C(S[C@@H]3CN[C@H](C(=O)N4C[C@@H](O)[C@H](O)C4)C3)[C@H](C)[C@H]12 [Example 396, (4R,5S,6R)-6-((R)-1-(2-(1H-tetrazol-1-yl)acetamido)ethyl)-3-((3S,5S)-5-((3R,4R)-3,4-dihydroxypyrrolidine-1-carbonyl)pyrrolidin-3-ylthio)-methyl-7-oxo-1-azabicyclo[3.2.0]hept-2-ene-2-carboxylic acid]
0.03 µg/mL (≈ 0.0495 µM)	1 µg/mL (≈ 1.65 µM)	0.5 µg/mL (≈ 0.826 µM)	1 µg/mL (≈ 1.65 µM)						C[C@@H](NC(=O)Cn1cnnn1)[C@H]1C(=O)N2C(C(=O)O)=C(S[C@@H]3CN[C@H](C(=O)N4C[C@@H](CO)[C@H](NC(=N)N)C4)C3)[C@H](C)[C@H]12 [Example 583, (4R,5S,6R)-6-((R)-1-(2-(1H-tetrazol-1-yl)acetamido)ethyl)-3-((3S,5S)-5-((3S,4R)-3-guanidino-4-(hydroxymethyl)pyrrolidine-1-carbonyl)pyrrolidin-3-ylthio)-4-methyl-7-oxo-1-azabicyclo[3.2.0]hept-2-ene-2-carboxylic acid]
